Reference: patent US11000601B2, “Conjugated biological molecules, pharmaceutical compositions and methods” (OBI Pharma, Inc., priority 2016, dated 2021)
“And” between values parts separate entries of the source, which are not always exact repeats. Equal entries are not always repeated. Square brackets hold non-standard residues; d marks the D form. Peptide text beside a SMILES is read from it. * marks the point of attachment. Dolaproine = CO[C@@H]([C@@H]1CCCN1)[C@@H](C)C(=O)O; Dil = CC[C@H](C)[C@H](NC)[C@@H](CC(=O)O)OC; X1 = C[C@@H](N*)[C@@H](O)c1ccccc1; NMeV = CN[C@H](C(=O)O)C(C)C

Tests used:
[1] = system: MCF-7 (ATCC HTB-22) human breast adenocarcinoma; experiment: Xenograft tumor model of human breast adenocarcinoma MCF-7 in nude mice: tumor volume, T/C; format: in vivo; details: for Tumor Volume, individual mouse: mice No. 1-6
Protocol: In a xenograft tumor model of human breast adenocarcinoma, MCF-7 (ATCC HTB-22) cells were subcutaneously (SC) implanted (2.0×10^7 cells in 1:1 matrigel/media mixture at 0.2 mL/mouse) into the right flank of female athymic (nu/nu) nude mice. Supplemental injections of estradiol cyclopentyl propionate (100 μg/mouse) were administered subcutaneously between the scapulae twice weekly, from one week prior to cell implantation to study completion. Tumor-implanted mice were divided into eleven treatment groups, each group containing six animals, and test agent administrations were initiated one day after cell implantation (denoted as Day 1). 3.1 Test Substances and Dosing Pattern
Two control groups received intravenous injections of vehicle (25 mM Sodium Citrate, pH 6.5+100 mM NaCl) once weekly for either six weeks (group 1) or two weeks (group 2).
Human breast adenocarcinoma tumor cell line, MCF-7 (ATCC HTB-22, breast adenocarcinoma), was provided by the Sponsor. The tumor cells were prepared and cultured by the Sponsor (1×10^8 cells/mL), and 0.2 mL MCF-7 tumor cell inoculum containing 2×10^7 cells (mixture of matrigel and medium; 1:1) was implanted subcutaneously in the right flank of each mouse.
Female (nu/nu) nude mice aged 6-7 weeks obtained from BioLasco Taiwan (under Charles River Laboratories Licensee) were used. The animals were housed in individually ventilated cages (IVG, 36 Mini Isolator System). The allocation for 3-5 animals was 27×20×14 in cm. All animals were maintained in a hygienic environment under controlled temperature (20-24° C.) and humidity (30-70%) with 12-hour light/dark cycle. Free access to standard lab diet (Oriental Yeast Co., Ltd., Japan) and autoclaved tap water were granted. All aspects of this work including housing, experimentation, and animal disposal were performed in general accordance with the “Guide for the Care and Use of Laboratory Animals: Eighth Edition” (National Academies Press, Washington, D.C., 2011) in our AAALAC-accredited laboratory animal facility. In addition, the animal care and use protocol was reviewed and approved by the IACUC at Eurofins Panlabs Taiwan, Ltd.
The tumor volumes, body weights, mortality, and signs of overt toxicity were monitored and recorded twice weekly for 77 days. Tumor volume (mm^3) was calculated according to the formula for a prolate ellipsoid: length (mm)×[width (mm)]^2×0.5. Tumor growth inhibition was calculated as T/C (treatment/control)×100%. A T/C value≤42% was considered significant anti-tumor activity. Two-way ANOVA followed by Bonferroni test was used to ascertain the statistical significance of groups compared to respective vehicle control (*p<0.05).

[2] = Body weight in male BALB/c nude mice bearing HPAC established tumors; details: QW x 4, MMAE 0.191 mg/kg IP; for Body Weight (g), Mean: group mean; for Body Weight (g), Mean / Body Weight: ADC (OBI-999) and OBI-888 10 mg/kg IV; for Body Weight: individual animals
Protocol: Male nu/nu nude, aged 6-8 weeks, were obtained from Shanghai Lingchang and used. The mice were kept in individual ventilation cages at constant temperature and humidity with four animals in each cage (temperature: 20-26° C. and humidity: 40-70%). The cages were made of polycarbonate and the size was 300 mm×200 mm×180 mm. The bedding material was corn cob, which was changed twice per week. Animals had free access to irradiation sterilized dry granule food and drinking water during the entire study period. The identification labels for each cage contained the following information: number of animals, sex, strain, date received, treatment, study number, group number and the starting date of the treatment.

[3] = 0.057 mg/kg × 6, IV, once weekly, Day 1
[4] = 0.057 mg/kg × 6, IV, once weekly, Day 5
[5] = 0.057 mg/kg × 6, IV, once weekly, Day 8
[6] = 0.057 mg/kg × 6, IV, once weekly, Day 12
[7] = 0.057 mg/kg × 6, IV, once weekly, Day 15
[8] = 0.057 mg/kg × 6, IV, once weekly, Day 19
[9] = 0.057 mg/kg × 6, IV, once weekly, Day 22
[10] = 0.057 mg/kg × 6, IV, once weekly, Day 26
[11] = 0.057 mg/kg × 6 IV once weekly, Day 29
[12] = 0.057 mg/kg × 6 IV once weekly, Day 33
[13] = 0.057 mg/kg × 6 IV once weekly, Day 36
[14] = 0.057 mg/kg × 6 IV once weekly, Day 40
[15] = 0.057 mg/kg × 6 IV once weekly, Day 43
[16] = 0.057 mg/kg × 6 IV once weekly, Day 46
[17] = 0.057 mg/kg × 6 IV once weekly, Day 49
[18] = Gr. 11, 0.057 mg/kg × 6, IV, once weekly, Day 53
[19] = Gr. 11, 0.057 mg/kg × 6, IV, once weekly, Day 56
[20] = Gr. 11, 0.057 mg/kg × 6, IV, once weekly, Day 60
[21] = Gr. 11, 0.057 mg/kg × 6, IV, once weekly, Day 63
[22] = Gr. 11, 0.057 mg/kg × 6, IV, once weekly, Day 67
[23] = Gr. 11, 0.057 mg/kg × 6, IV, once weekly, Day 70
[24] = Gr. 11, 0.057 mg/kg × 6, IV, once weekly, Day 74
[25] = Gr. 11, 0.057 mg/kg × 6, IV, once weekly, Day 77

## CC[C@H](C)[C@@H]([C@@H](CC(=O)N1CCC[C@H]1[C@H](OC)[C@@H](C)C(=O)N[C@H](C)[C@@H](O)c1ccccc1)OC)N(C)C(=O)[C@@H](NC(=O)[C@@H](NC)C(C)C)C(C)C [MMAE, monomethyl auristatin E] (H-[NMeV]V[Dil][Dolaproine]-X1)
[1]; 0.057 mg/kg IV once weekly for six weeks, during and for a short time after the dosing phase
  anti-tumor activity (in words): modest-to-moderate anti-tumor activity
[1]; [3]
  % T/C: 101%
  Tumor Volume, Mean: 161 mm^3
  Tumor Volume, single mouse (No. 1-6): 141 mm^3 and 139 mm^3 and 162 mm^3 and 186 mm^3 and 152 mm^3 and 188 mm^3
[1]; [4]
  % T/C: 97%
  Tumor Volume, Mean: 119 mm^3
  Tumor Volume, single mouse (No. 1-6): 110 mm^3 and 123 mm^3 and 145 mm^3 and 104 mm^3 and 106 mm^3 and 128 mm^3
[1]; [5]
  % T/C: 96%
  Tumor Volume, Mean: 132 mm^3
  Tumor Volume, single mouse (No. 1-6): 121 mm^3 and 125 mm^3 and 139 mm^3 and 131 mm^3 (2×) and 146 mm^3
[1]; [6]
  % T/C: 71%
  Tumor Volume, Mean: 114 mm^3
  Tumor Volume, single mouse (No. 1-6): 101 mm^3 and 104 mm^3 and 133 mm^3 and 115 mm^3 and 103 mm^3 and 129 mm^3
[1]; [7]
  % T/C: 72%
  Tumor Volume, Mean: 116 mm^3
  Tumor Volume, single mouse (No. 1-6): 102 mm^3 and 101 mm^3 and 127 mm^3 and 105 mm^3 and 137 mm^3 and 121 mm^3
[1]; [8]
  % T/C: 64%
  Tumor Volume, Mean: 130 mm^3
  Tumor Volume, single mouse (No. 1-6): 137 mm^3 and 113 mm^3 and 125 mm^3 and 121 mm^3 and 148 mm^3 and 135 mm^3
[1]; [9]
  % T/C: 61%
  Tumor Volume, Mean: 140 mm^3
  Tumor Volume, single mouse (No. 1-6): 123 mm^3 and 137 mm^3 (2×) and 138 mm^3 and 164 mm^3 and 143 mm^3
[1]; [10]
  % T/C: 54%
  Tumor Volume, Mean: 143 mm^3
  Tumor Volume, single mouse (No. 1-6): 135 mm^3 and 127 mm^3 and 119 mm^3 and 154 mm^3 and 179 mm^3 and 144 mm^3
[1]; [11]
  % T/C: 54%
  Tumor Volume, individual mouse: 146 mm^3 and 131 mm^3 and 119 mm^3 and 156 mm^3 and 194 mm^3 and 160 mm^3
[1]; 0.057 mg/kg × 6 IV once weekly, Day 29, group mean
  Tumor Volume, Mean: 151 mm^3
[1]; [12]
  % T/C: 55%
  Tumor Volume, individual mouse: 162 mm^3 and 152 mm^3 and 133 mm^3 and 168 mm^3 and 216 mm^3 and 177 mm^3
[1]; 0.057 mg/kg × 6 IV once weekly, Day 33, group mean
  Tumor Volume, Mean: 168 mm^3
[1]; [13]
  % T/C: 59%
  Tumor Volume, individual mouse: 171 mm^3 and 154 mm^3 and 152 mm^3 and 201 mm^3 and 256 mm^3 and 218 mm^3
[1]; 0.057 mg/kg × 6 IV once weekly, Day 36, group mean
  Tumor Volume, Mean: 192 mm^3
[1]; [14]
  % T/C: 61%
  Tumor Volume, individual mouse: 184 mm^3 and 186 mm^3 and 156 mm^3 and 223 mm^3 and 285 mm^3 and 226 mm^3
[1]; 0.057 mg/kg × 6 IV once weekly, Day 40, group mean
  Tumor Volume, Mean: 210 mm^3
[1]; [15]
  % T/C: 63%
  Tumor Volume, individual mouse: 186 mm^3 (2×) and 239 mm^3 and 242 mm^3 and 296 mm^3 and 240 mm^3
[1]; 0.057 mg/kg × 6 IV once weekly, Day 43, group mean
  Tumor Volume, Mean: 232 mm^3
[1]; [16]
  % T/C: 65%
  Tumor Volume, individual mouse: 204 mm^3 and 261 mm^3 and 222 mm^3 and 258 mm^3 and 332 mm^3 and 259 mm^3
[1]; 0.057 mg/kg × 6 IV once weekly, Day 46, group mean
  Tumor Volume, Mean: 256 mm^3
[1]; [17]
  % T/C: 64%
  Tumor Volume, individual mouse: 210 mm^3 and 270 mm^3 and 235 mm^3 and 301 mm^3 and 351 mm^3 and 264 mm^3
[1]; 0.057 mg/kg × 6 IV once weekly, Day 49, group mean
  Tumor Volume, Mean: 272 mm^3
[1]; [18]
  % T/C (tumor volume, treatment/control): 64%
  Tumor Volume, Mean: 290 mm^3
  Tumor Volume, individual animals No. 1-6: 216 mm^3 and 291 mm^3 and 268 mm^3 and 319 mm^3 and 373 mm^3 and 270 mm^3
[1]; [19]
  % T/C (tumor volume, treatment/control): 65%
  Tumor Volume, Mean: 323 mm^3
  Tumor Volume, individual animals No. 1-6: 305 mm^3 and 249 mm^3 and 325 mm^3 and 329 mm^3 and 399 mm^3 and 328 mm^3
[1]; [20]
  % T/C (tumor volume, treatment/control): 65%
  Tumor Volume, Mean: 357 mm^3
  Tumor Volume, individual animals No. 1-6: 312 mm^3 and 262 mm^3 and 383 mm^3 and 373 mm^3 and 453 mm^3 and 358 mm^3
[1]; [21]
  % T/C (tumor volume, treatment/control): 71%
  Tumor Volume, Mean: 421 mm^3
  Tumor Volume, individual animals No. 1-6: 286 mm^3 and 422 mm^3 and 494 mm^3 and 418 mm^3 and 496 mm^3 and 412 mm^3
[1]; [22]
  % T/C (tumor volume, treatment/control): 71%
  Tumor Volume, Mean: 469 mm^3
  Tumor Volume, individual animals No. 1-6: 307 mm^3 and 458 mm^3 and 598 mm^3 and 455 mm^3 and 505 mm^3 and 489 mm^3
[1]; [23]
  % T/C (tumor volume, treatment/control): 73%
  Tumor Volume, Mean: 512 mm^3
  Tumor Volume, individual animals No. 1-6: 333 mm^3 and 591 mm^3 and 603 mm^3 and 493 mm^3 and 523 mm^3 and 528 mm^3
[1]; [24]
  % T/C (tumor volume, treatment/control): 79%
  Tumor Volume, Mean: 584 mm^3
  Tumor Volume, individual animals No. 1-6: 365 mm^3 and 625 mm^3 and 681 mm^3 and 570 mm^3 and 568 mm^3 and 695 mm^3
[1]; [25]
  % T/C (tumor volume, treatment/control): 83%
  Tumor Volume, Mean: 736 mm^3
  Tumor Volume, individual animals No. 1-6: 410 mm^3 and 922 mm^3 and 760 mm^3 and 632 mm^3 and 807 mm^3 and 887 mm^3
[2]; Day 0
  Body Weight (g), Mean: 24.2 g
  Body Weight: 25.4 g and 24.2 g and 23.3 g and 24.0 g and 22.7 g
[2]; Day 3
  Body Weight (g), Mean: 22.1 g
  Body Weight: 21.8 g and 22.4 g and 21.5 g and 21.6 g (2×) and 24.0 g and 20.7 g and 23.1 g
[2]; Day 4
  Body Weight (g), Mean: 21.9 g
  Body Weight: 21.0 g and 21.3 g and 20.5 g and 22.0 g and 19.6 g and 22.1 g
[2]; Day 7
  Body Weight (g), Mean: 23.6 g
  Body Weight: 18.8 g and 25.1 g and 27.0 g and 21.7 g and 23.8 g
[2]; Day 9
  Body Weight: 22.2 g
[2]; Day 10
  Body Weight: 26.0 g
[2]; Day 14
  Body Weight: 24.4 g and 26.0 g
[2]; Day 17
  Body Weight: 23.9 g and 26.0 g and 23.6 g
[2]; Day 21
  Body Weight: 23.8 g
[2]; Day 28
  Body Weight (g), Mean: 25.4 g
[2]; Day 31
  Body Weight: 25.0 g and 25.4 g
[2]; Day 35
  Body Weight (g), Mean: 26.0 g
  Body Weight: 27.2 g
[2]; Day 37
  Body Weight: 26.7 g and 24.0 g
[2]; individual animal, OBI-888 10 mg/kg IV
  Animal status (Died / Euthanized): Died and Euthanized
